Data as given in ChEMBL document CHEMBL1154717.
Active and inactive are the calls of the source. The calls are words filed in the database; no cut-off is given here.

Columns and labels:
[1] = target: T1, Tumour suppressor p53/oncoprotein Mdm2 (Homo sapiens) (UniProt P04637+Q00987); assay: Inhibition of MDM2-p53 interaction in human SJSA1 cells expressing wild type p53 assessed as increase in MDM2 protein level at 10 uM by Western blot; type: cell-based; settings: SJSA-1
[2] = target: T1, Tumour suppressor p53/oncoprotein Mdm2 (Homo sapiens); assay: Inhibition of MDM2-p53 interaction in human SJSA1 cells expressing wild type p53 assessed as increase in p21 protein level at 10 uM by Western blot; type: cell-based; settings: SJSA-1
[3] = Cmax in Sprague-Dawley rat at 25 mg/kg, po; type: ADME, organism-based; design: dose 25 mg/kg, route oral; settings: in vivo
HCT-116 [4] = assay: cells; settings: Homo sapiens, HCT-116, 96 h
[5] = Terminal half life in Sprague-Dawley rat at 25 mg/kg, po; type: ADME, organism-based; design: dose 25 mg/kg, route oral; settings: in vivo, read-out: beta t1/2 (converted)
[6] = Oral bioavailability in Sprague-Dawley rat at 25 mg/kg; type: ADME, organism-based; settings: in vivo
HCT-116 [7] = assay: cells; settings: Homo sapiens, HCT-116, 96 h; remark: listed apart in the source
[8] = Terminal half life in Sprague-Dawley rat at 50 mg/kg, po; type: ADME, organism-based; design: dose 50 mg/kg, route oral; settings: in vivo, read-out: beta t1/2 (converted)
Mus musculus [9] = assay: Toxicity in mouse xenografted with human SJSA1 cells assessed as weight loss at 300 mg/kg, po qd for 14 days relative to untreated control; type: organism-based, SJSA-1; design: dose 300 mg/kg, route oral; settings: in vivo, 336 h
SJSA-1 [10] = assay: Induction of cell death in human SJSA1 cells by trypan blue staining; type: functional, cell-based
SAOS-2 = assay: Induction of cell death in human Saos2 cells deficient in wild type p53 at 10 uM by trypan blue staining; type: functional, cell-based
[11] = Cmax in Sprague-Dawley rat at 50 mg/kg, po; type: ADME, organism-based; design: dose 50 mg/kg, route oral; settings: in vivo
Mus musculus [12] = assay: Toxicity in mouse xenografted with human SJSA1 cells assessed as occurrence of toxicity symptoms at 300 mg/kg, po qd for 14 days relative to untreated control; type: organism-based, SJSA-1; design: dose 300 mg/kg, route oral; settings: in vivo, 336 h
SJSA-1 [13] = assay: Induction of cell death in human SJSA1 cells at 1. 25 uM after 2 days by trypan blue staining; type: functional
Rattus norvegicus [14] = assay: AUC (0 to t) in Sprague-Dawley rat at 50 mg/kg, po; type: ADME, organism-based, Plasma; design: dose 50 mg/kg, route oral; settings: in vivo
[15] = Oral bioavailability in Sprague-Dawley rat at 50 mg/kg; type: ADME, organism-based; settings: in vivo
Rattus norvegicus [16] = assay: AUC (0 to t) in Sprague-Dawley rat at 25 mg/kg, po; type: ADME, organism-based, Plasma; design: dose 25 mg/kg, route oral; settings: in vivo

T1 sequence (P04637 whole entry, looked up): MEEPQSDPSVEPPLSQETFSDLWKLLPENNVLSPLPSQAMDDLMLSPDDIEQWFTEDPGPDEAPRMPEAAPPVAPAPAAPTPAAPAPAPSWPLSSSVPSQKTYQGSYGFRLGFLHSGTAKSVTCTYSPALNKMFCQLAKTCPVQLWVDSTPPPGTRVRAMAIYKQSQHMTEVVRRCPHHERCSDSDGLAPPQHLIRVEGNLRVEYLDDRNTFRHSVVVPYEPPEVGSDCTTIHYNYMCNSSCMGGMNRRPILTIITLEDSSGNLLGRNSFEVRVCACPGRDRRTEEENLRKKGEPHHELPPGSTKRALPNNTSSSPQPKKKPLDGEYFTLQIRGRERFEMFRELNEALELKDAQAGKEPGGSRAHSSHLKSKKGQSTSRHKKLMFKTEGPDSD
T1 sequence (Q00987 whole entry, looked up): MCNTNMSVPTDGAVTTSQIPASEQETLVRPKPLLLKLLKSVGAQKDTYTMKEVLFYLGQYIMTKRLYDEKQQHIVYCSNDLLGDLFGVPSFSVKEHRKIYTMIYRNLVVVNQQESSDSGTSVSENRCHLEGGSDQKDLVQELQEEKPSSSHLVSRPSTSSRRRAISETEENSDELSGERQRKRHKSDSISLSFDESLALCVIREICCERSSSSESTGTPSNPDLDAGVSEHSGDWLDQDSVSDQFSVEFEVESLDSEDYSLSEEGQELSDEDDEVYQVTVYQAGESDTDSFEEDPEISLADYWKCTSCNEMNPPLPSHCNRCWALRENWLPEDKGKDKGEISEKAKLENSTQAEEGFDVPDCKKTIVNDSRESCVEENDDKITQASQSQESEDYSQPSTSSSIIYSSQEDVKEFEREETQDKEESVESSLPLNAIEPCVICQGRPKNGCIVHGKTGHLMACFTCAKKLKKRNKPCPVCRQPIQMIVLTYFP

For `COc1ccc2c(c1)NC(=O)[C@]21[C@@H](CC(C)(C)C)N[C@@H](C(=O)N(C)C)[C@@H]1c1cccc(Br)c1`, the Activity [1] was “inactive” and the Activity [2] was “inactive”.
`CC(C)(C)C[C@H]1N[C@@H](C(=O)NCC[C@H](O)CO)[C@H](c2cccc(Cl)c2)[C@@]12C(=O)Nc1cc(Cl)ccc12` gave a Cmax [3] of 805 ng/mL, an IC50 (HCT-116 [4]) of 800 nM and a half-life [5] of 3 h. It also gave a bioavailability [6] of 19%.
With `CN1CCC(CCNC(=O)[C@@H]2N[C@H](CC(C)(C)C)[C@]3(C(=O)Nc4cc(Cl)ccc43)[C@H]2c2cccc(Cl)c2F)CC1` the IC50 (HCT-116 [7]) was 7300 nM, the Cmax [3] was 120 ng/mL and the IC50 (HCT-116 [4]) was 400 nM. It also gave a half-life [5] of 7.1 h and a bioavailability [6] of 14%.
Compound `CN1CCN(CCNC(=O)[C@@H]2N[C@H](CC(C)(C)C)[C@]3(C(=O)Nc4cc(Cl)ccc43)[C@H]2c2cccc(Cl)c2F)CC1` has a Cmax [3] of 274 ng/mL, an IC50 (HCT-116 [4]) of 400 nM and a half-life [5] of 3.8 h. For the same compound, the bioavailability [6] was 31%.
`CC(C)(C)C[C@H]1N[C@@H](C(=O)NC[C@H](O)CO)[C@H](c2cccc(Cl)c2)[C@@]12C(=O)Nc1cc(Cl)c(F)cc12` gave an IC50 (HCT-116 [7]) of 23600 nM, a Cmax [3] of 2070 ng/mL and an IC50 (HCT-116 [4]) of 1300 nM. It also gave a half-life [5] of 3.2 h and a bioavailability [6] of 18%.
Compound `CC(C)(C)C[C@H]1N[C@@H](C(=O)NCC[C@H](O)CO)[C@H](c2cccc(Cl)c2F)[C@@]12C(=O)Nc1cc(Cl)ccc12` has an IC50 (HCT-116 [7]) of 16000 nM, a half-life [8] of 3.9 h and an IC50 (HCT-116 [4]) of 400 nM. For the same compound, the Activity (Mus musculus [9]) was “Non-toxic”, the Activity (SJSA-1 [10]) was “Dose-dependent effect” and the Activity (SAOS-2) was “inactive”. The Cmax [11] was 1510 ng/mL, the Activity (Mus musculus [12]) was “Non-toxic” and the Activity (SJSA-1 [13]) was 50%. The AUC (Rattus norvegicus [14]) was 8770 ng·h/mL and the bioavailability [15] was 21%.
`CC(C)(C)C[C@H]1N[C@@H](C(=O)NCC[C@H](O)CO)[C@H](c2cccc(Cl)c2)[C@@]12C(=O)Nc1cc(Cl)c(F)cc12` gave an IC50 (HCT-116 [7]) of 24800 nM, a Cmax [3] of 3750 ng/mL and an IC50 (HCT-116 [4]) of 1100 nM. The Activity (SJSA-1 [10]) was “Dose-dependent effect”, the half-life [5] was 1.4 h and the bioavailability [6] was 65%. It also gave an Activity (SJSA-1 [13]) of 20%.
In the case of `CC(C)(C)C[C@H]1N[C@@H](C(=O)NCC[C@@H](O)CO)[C@H](c2cccc(Cl)c2)[C@@]12C(=O)Nc1cc(Cl)c(F)cc12`, the IC50 (HCT-116 [7]) is reported as 32800 nM, the Cmax [3] is reported as 3550 ng/mL and the IC50 (HCT-116 [4]) is reported as 2800 nM. For the same compound, the half-life [5] was 3.4 h, the bioavailability [6] was 31% and the AUC (Rattus norvegicus [16]) was 11700 ng·h/mL.
For `CC(C)(C)C[C@H]1N[C@@H](C(=O)NCCN2CCOCC2)[C@H](c2cccc(Cl)c2F)[C@@]12C(=O)Nc1cc(Cl)ccc12`, the Cmax [3] was 248 ng/mL, the IC50 (HCT-116 [4]) was 700 nM and the half-life [5] was 1.3 h. The bioavailability [6] was 10%.
With `COCCOCCNC(=O)[C@@H]1N[C@H](CC(C)(C)C)[C@]2(C(=O)Nc3cc(Cl)ccc32)[C@H]1c1cccc(Cl)c1F` the Cmax [3] was 97 ng/mL, the IC50 (HCT-116 [4]) was 800 nM and the half-life [5] was 1.2 h. The bioavailability [6] was 5%.
